IC50 data for 30 compounds are collected here from US20220370453A1 (Storm Therapeutics Ltd, priority 2019, published 2022).

By IC50 is commonly meant the concentration that gives 50% inhibition. Read a high IC50 as weaker potency in that assay.

In this experiment the target is T1, BCDIN3D (Homo sapiens, UniProt Q7Z5W3).
T1 sequence (Q7Z5W3 1-292): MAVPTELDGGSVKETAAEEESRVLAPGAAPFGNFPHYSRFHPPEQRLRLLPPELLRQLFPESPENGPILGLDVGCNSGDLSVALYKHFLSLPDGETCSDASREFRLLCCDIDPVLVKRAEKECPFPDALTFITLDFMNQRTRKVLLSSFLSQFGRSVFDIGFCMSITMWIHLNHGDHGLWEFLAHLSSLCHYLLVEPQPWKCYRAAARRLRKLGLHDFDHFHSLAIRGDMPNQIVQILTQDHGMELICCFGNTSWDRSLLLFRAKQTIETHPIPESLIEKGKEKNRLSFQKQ
Nature of the experiment: BCDIN3D IC50 RFMS (RapidFire) assay with mini-helix. It is filed as biochemical. To be noted: 25 nM enzyme. The protocol:
The following General Methods details the assay conditions for the Biological assays.
BCDIN3D IC50 RFMS Assay with Mini-Helix
The enzymatic assay was performed in a 384-well polypropylene plate in assay buffer with 25 mM Tris pH 8.0, 10 mM DTT, 1 mM EDTA, 0.03% BSA in a final assay volume of 20 μL. The enzyme with a final concentration of 25 nM was pre-incubated with the respective compound at 1% DMSO final assay concentration over 10 min at room temperature. The reaction was initiated by addition of 0.2 μM final assay concentration of mini-helix and 6 μM final concentration of SAM as substrates. After a 1 hr incubation at 37° C., the reaction was terminated with 40 μL of stop solution of 7.5% trichloroactetic acid in water containing 112.5 nM D4-SAH and 30 nM ^13C10-SAH used as internal standards. The SAH product concentrations as well as both internal standards were analyzed by a RapidFire High Throughput Mass Spectrometry System (Agilent Technologies, Santa Clara, Calif.) using an AP14000 triple quadrupole mass spectrometer (AB Sciex Framingham, Mass.).

[1] abbreviates: mini-helix substrate 0.2 μM, SAM 6 μM.
Setting [2] is: mini-helix 0.2 μM and SAM 6 μM as substrates, 1 hr at 37° C.

In the case of `Cc1ccc(CNc2nc(NC[C@H](C)N)nc3c2cnn3C)cc1Cl` [Compound 3.03, 6-N-[(2S)-2-aminopropyl]-4-N-[(3-chloro-4-methylphenyl)methyl]-1-methylpyrazolo[3,4-d]pyrimidine-4,6-diamine], the midpoint of inhibition under setting [1], the IC50, lay at 5.71 µM.

Under setting [1], `Cn1ncc2c(NC(C)(C)C)nc(NCC(N)c3ccc(F)c(F)c3)nc21` (stereo not drawn) [Compound 5.31, N6-[2-amino-2-(3,4-difluorophenyl)ethyl]-N4-tert-butyl-1-methyl-pyrazlo[3,4-d]pyrimidine-4,6-diamine] yielded an IC50 of 0.35 µM.

In turn, `Cn1ncc2c(NC(C)(C)C)nc(NC[C@@H](N)c3ccc(F)c(F)c3)nc21` [Compound 7.21, N6-[(2S)-2-amino-2-(3,4-difluorophenyl)ethyl]-N4-tert-butyl-1-methyl-1H-pyrazolo[3,4-d]pyrimidine-4,6-diamine] had an IC50 under setting [2] of 0.00462 µM.

In turn, `Cn1ncc2c(NC(C)(C)C)nc(NC[C@@H](N)C3CCCCC3)nc21` [Compound 7.23, N6-[(2S)-2-amino-2-cyclohexylethyl]-N4-tert-butyl-1-methyl-1H-pyrazolo[3,4-d]pyrimidine-4,6-diamine] showed an IC50 under setting [2] of 5.17 µM.

As to `COc1ccc(CCNc2nc(NCCN)nc3c2cnn3C)cn1` [Compound 1.07, N6-(2-aminoethyl)-N4-[2-(6-methoxypyridin-3-yl)ethyl]-1-methyl-1H-pyrazolo[3,4-d]pyrimidine-4,6-diamine], half-maximal inhibition under setting [2] (IC50) required 4.38 µM.

Regarding `Cn1ncc2c(NCC3CCN(C(=O)c4ccccc4)CC3)nc(NCCN)nc21` [Compound 1.42, N6-(2-aminoethyl)-N4-[(1-benzoylpiperidin-4-yl)methyl]-1-methyl-1H-pyrazolo[3,4-d]pyrimidine-4,6-diamine], the IC50 under setting [2] came out at 5.76 µM.

`Cn1ncc2c(NC(C)(C)CCO)nc(NC[C@H](N)c3ccccc3)nc21` [Compound 4.70, 3-[[6-[[(2R)-2-amino-2-phenyl-ethyl]amino]-1-methyl-pyrazolo[3,4-d]pyrimidin-4-yl]amino]-3-methyl-butan-1-ol] had an IC50 under setting [1] of 1.3 µM.

In turn, `Cc1ccc(CNc2nc(NC[C@H]3CCCN3)nc3c2cnn3C)cc1Cl` [Compound 3.17, 4-N-[(3-chloro-4-methylphenyl)methyl]-1-methyl-6-N-[[(2R)-pyrrolidin-2-yl]methyl]pyrazolo[3,4-d]pyrimidine-4,6-diamine] returned an IC50 under setting [1] of 9.57 µM.

The compound `COc1cc(Cl)cc(CNc2nc(NCCN)nc3c2cnn3C)c1` [Compound 1.20, N6-(2-aminoethyl)-N4-[(3-chloro-5-methoxyphenyl)methyl]-1-methyl-1H-pyrazolo[3,4-d]pyrimidine-4,6-diamine] gave an IC50 under setting [2] of 3.53 µM.

Under setting [2], `Cn1ncc2c(NCc3ccc(F)c(Cl)c3)nc(NCCN)nc21` [Compound 1.17, N6-(2-aminoethyl)-N4-[(3-chloro-4-fluorophenyl)methyl]-1-methyl-1H-pyrazolo[3,4-d]pyrimidine-4,6-diamine] displayed an IC50 of 6.9 µM.

Regarding `Cn1ncc2c(NC34CC(C3)C4)nc(NCC3(N)CC3)nc21` [Compound 2.38, 6-N-[(1-aminocyclopropyl)methyl]-4-N-(3-bicyclo[1.1.1]pentanyl)-1-methylpyrazolo[3,4-d]pyrimidine-4,6-diamine], half-maximal inhibition under setting [1] (IC50) was put at 1.71 µM.

In turn, `COc1ccc(CNc2nc(NCCN)nc3c2c(C)nn3C)cc1Cl` [Compound 1.29, N6-(2-aminoethyl)-N4-[(3-chloro-4-methoxyphenyl)methyl]-1,3-dimethyl-1H-pyrazolo[3,4-d]pyrimidine-4,6-diamine] yielded an IC50 under setting [2] of 2.9 µM.

Under setting [2], `[2H]C([2H])([2H])n1ncc2c(NC(C)(C)C)nc(NCC(N)c3ccccc3F)nc21` (stereo in doubt) [Compound 7.16, N6-[(2R)-2-amino-2-(2-fluorophenyl)ethyl]-N4-tert-butyl-1-(trideuteriomethyl)pyrazolo[3,4-d]pyrimidine-4,6-diamine] gave an IC50 of 0.069 µM.

`Cn1ncc2c(NCC3CCN(Cc4ccccc4)CC3)nc(NCCN)nc21` [Compound 1.41, N6-(2-aminoethyl)-N4-[(1-benzylpiperidin-4-yl)methyl]-1-methyl-1H-pyrazolo[3,4-d]pyrimidine-4,6-diamine] showed an IC50 under setting [2] of 21.1 µM.

Under setting [1], `Cn1ncc2c(NC(C)(C)C)nc(NCC(N)c3ccc(F)cc3)nc21` (stereo not drawn) [Compound 5.30, N6-[2-amino-2-(4-fluorophenyl)ethyl]-N4-tert-butyl-1-methyl-1H-pyrazolo[3,4-d]pyrimidine-4,6-diamine] had an IC50 of 0.37 µM.

Compound `Cn1ncc2c(NCc3ccc4nc[nH]c4c3)nc(NCCN)nc21` [Compound 1.13, N6-(2-aminoethyl)-N4-[(1H-1,3-benzodiazol-5-yl)methyl]-1-methyl-1H-pyrazolo[3,4-d]pyrimidine-4,6-diamine] gave an IC50 under setting [2] of 7.8 µM.

Under setting [2], `Cn1ncc2c(NCCc3ccc4c(c3)OCO4)nc(NCCN)nc21` [Compound 1.09, N6-(2-aminoethyl)-N4-[2-(2H-1,3-benzodioxol-5-yl)ethyl]-1-methyl-1H-pyrazolo[3,4-d]pyrimidine-4,6-diamine] showed an IC50 of 4.07 µM.

Compound `Cc1ccc(CNc2nc(N[C@@H]3CCCC[C@H]3N)nc3c2cnn3C)cc1Cl` [Compound 7.03, 6-N-[(1R,2R)-2-aminocyclohexyl]-4-N-[(3-chloro-4-methylphenyl)methyl]-1-methylpyrazolo[3,4-d]pyrimidine-4,6-diamine] gave an IC50 under setting [2] of 8.58 µM.

`Cn1ncc2c(NCc3ccc4occc4c3)nc(NCCN)nc21` [Compound 1.10, N6-(2-aminoethyl)-N4-[(1-benzofuran-5-yl)methyl]-1-methyl-1H-pyrazolo[3,4-d]pyrimidine-4,6-diamine]: the IC50 under setting [2] was determined as 5.49 µM.

Under setting [2], `Cn1ncc2c(Nc3cccc(C(F)(F)F)c3)nc(NCCN)nc21` [Compound 1.02, N6-(2-aminoethyl)-1-methyl-N4-[3-(trifluoromethyl)phenyl]-1H-pyrazolo[3,4-d]pyrimidine-4,6-diamine] showed a concentration for half-maximal inhibition (IC50) of 4.27 µM.

`COc1ccc(CCNc2nc(NCCN)nc3c2cnn3C)cc1Cl` [Compound 1.08, N6-(2-aminoethyl)-N4-[2-(3-chloro-4-methoxyphenyl)ethyl]-1-methyl-1H-pyrazolo[3,4-d]pyrimidine-4,6-diamine] gave a 50% inhibitory concentration (IC50) under setting [2] of 2.8 µM.

As to `Cn1ncc2c(NCc3ccc(F)cc3F)nc(NCCN)nc21` [Compound 1.19, N6-(2-aminoethyl)-N4-[(2,4-difluorophenyl)methyl]-1-methyl-1H-pyrazolo[3,4-d]pyrimidine-4,6-diamine], the IC50 under setting [2] is 6.38 µM.

Consider `Cn1ncc2c(NCC3CCN(S(=O)(=O)c4ccccc4)CC3)nc(NCCN)nc21` [Compound 1.12, N6-(2-aminoethyl)-N4-{[1-(benzenesulfonyl)piperidin-4-yl]methyl}-1-methyl-1H-pyrazolo[3,4-d]pyrimidine-4,6-diamine], for which the IC50 under setting [2] was 9.52 µM.

Under setting [1], `[2H]C([2H])([2H])Nc1nc(NCC(N)c2ccccc2)nc2c1cnn2C` (stereo not drawn) [Compound 4.37, 6-N-(2-amino-2-phenylethyl)-1-methyl-4-N-(trideuteriomethyl)pyrazolo[3,4-d]pyrimidine-4,6-diamine] had an IC50 of 8.01 µM.

`Cc1ccc(CNc2nc(NC(C)CN)nc3c2cnn3C)cc1Cl` (stereo not drawn) [Compound 3.02, 6-N-(1-aminopropan-2-yl)-4-N-[(3-chloro-4-methylphenyl)methyl]-1-methylpyrazolo[3,4-d]pyrimidine-4,6-diamine]: under setting [1], inhibition was half-maximal at 6.56 µM (IC50).

For `Cn1ncc2c(NCC3CCN(C(=O)OC(C)(C)C)CC3)nc(NCCN)nc21` [Compound 1.40, tert-butyl 4-[({6-[(2-aminoethyl)amino]-1-methyl-1H-pyrazolo[3,4-d]pyrimidin-4-yl}amino)methyl]piperidine-1-carboxylate], under setting [2], the IC50 amounted to 6.19 µM.

As for `Cn1ncc2c(NC(C)(C)C)nc(NC[C@H](N)c3ccc(F)c(F)c3)nc21` [Compound 7.20, N6-[(2R)-2-amino-2-(3,4-difluorophenyl)ethyl]-N4-tert-butyl-1-methyl-1H-pyrazolo[3,4-d]pyrimidine-4,6-diamine], the IC50 under setting [2] amounted to 0.8 µM.

The compound `COc1ccc(C(=O)N2CCC(CNc3nc(NCCN)nc4c3cnn4C)CC2)cc1Cl` [Compound 1.37, N6-(2-aminoethyl)-N4-{[1-(3-chloro-4-methoxybenzoyl)piperidin-4-yl]methyl}-1-methyl-1H-pyrazolo[3,4-d]pyrimidine-4,6-diamine] came in with an IC50 under setting [2] of 7.62 µM.

Under setting [2], `Cn1ncc2c(NCc3ccc(Cl)cc3F)nc(NCCN)nc21` [Compound 1.18, N6-(2-aminoethyl)-N4-[(4-chloro-2-fluorophenyl)methyl]-1-methyl-1H-pyrazolo[3,4-d]pyrimidine-4,6-diamine] returned an IC50 of 4.75 µM.

Consider `COc1ccc(CNc2nc(NCCN)nc3c2cnn3C)cc1` [Compound 1.39, N6-(2-aminoethyl)-N4-[(4-methoxyphenyl)methyl]-1-methyl-1H-pyrazolo[3,4-d]pyrimidine-4,6-diamine], for which the IC50 under setting [2] was 6.91 µM.
